Experimental data from PMC8596125, “Self‐Stabilized Supramolecular Assemblies Constructed from PEGylated Dendritic Peptide Conjugate for Augmenting Tumor Retention and Therapy” (Advanced Science, 2021).
“And” between values parts separate entries of the source, which are not always exact repeats. Equal entries are not always repeated.

Key:
In vivo pharmacokinetics = test: In vivo pharmacokinetics; parameters: species or system mouse; settings: healthy BALB/c mice, single i.v. 5 mg Ppa kg-1, plasma fluorescence, two-compartment model, mean ± s.d., n = 7
Description: 1.3.13 In vivo pharmacokinetics
Healthy pathogen-free BALB/c mice (5-6 weeks, female) were used to determine the pharmacokinetics of SSAs (n = 7). The mice were intravenously injected with Ppa and SSAs (5 mg Ppa kg-1), respectively. Blood (20 μL) was collected at diﬀerent time […]
Plasma was diluted to 50-fold with DMSO for fluorescent measurements using a BioTek plate reader. The pharmacokinetic parameters were calculated using a two-compartment model by WinNonlin 5.2 software. […]

4T1 cells = test: Cytotoxicity, CCK-8 assay, 4T1; assay type: cell-based, mouse
Description: The CCK-8 assay was used to examine the photodynamic therapeutic effect of SSAs on cell viability against three cell lines. 4×103 4T1 cells per well were seeded in a 96-well plate, and then incubated overnight. The cells were treated with different concentrations of Ppa and SSAs at an equivalent Ppa dose. After 24 h incubation, the medium was replaced with fresh one, and the wells were irradiated using a 660 nm laser with 1 J cm−2. After 24 h, the spent media was replaced and the cell viability was assessed using the CCK-8 reagent. The absorbance at […] of each well was recorded on a microplate reader. Untreated cells were served as a control. Results were presented as the average cell viability by following the manufacturer’s instruction. IC50 values were calculated by using nonlinear regression in software Graphpad Prism7. The cytotoxicity of SSAs and Ppa with or without laser against A549 cell line was also measured through the same procedure.
The cytotoxicity of SSAs and PDP without laser irradiation was also measured by […]

4T1 breast tumors = test: In vivo photodynamic therapy, 4T1 breast tumor model; parameters: species or system mouse; settings: n = 6; for TGI: BALB/c mice with 4T1 tumors
Description: and 14 d post-intravenous injection by a small-animal in vivo fluorescence imaging system (CRi Maestro EX, USA) with excitation at 450 nm and emission at 560 nm.
The mean fluorescence intensity (MFI) was quantitated by CRi Maestro EX 3.0.
Ex vivo fluorescent imaging
After BALB/c mice developed established tumors (100 mm3), Ppa and SSAs (5 mg Ppa kg-1) were intravenously injected into mice via their tail veins (n = 3). The mice were sacrificed at different time points (1 d, 3 d, 5 d, 7 d, 10 d and 14 d) after post-injection, and tumors were excised for ex vivo imaging and semi-quantitative distribution analysis by an in vivo imaging system (IVIS Spectrum In Vivo Imaging System, USA). These tumors were excised for preparing frozen sections. The fixed tumor samples were sectioned into 5 μm-thick slides and incubated with Alex Fluor 594 labeled anti-CD31 antibody (Abcam, UK) and DAPI (Dojindo, Japan). A confocal microscope was used to observe accumulation and retention of Ppa in the […]
1.3.15 In vivo photodynamic therapy
In the 4T1 breast tumor model, when the tumor volume reached about 50 mm3, the mice were divided into 5 groups (n = 6) and injected intravenously with saline, Ppa-1(one treatment), Ppa-2 (two treatments), SSAs-1 (one treatment) and SSAs-2 (two treatments) every four days. The dose per injection was 5 mg Ppa kg-1. After 3 d post-injection, mice were anesthetized with 2% (v/v) isofluorane and tumors were irradiated for 8 min (660 nm, 200 mW cm-2); The mice were monitored daily to identify any signs of toxicity, while the tumor volumetric size and the body weight were measured every 2 d. Tumor volumes were calculated using the following formula: tumor volume = length × width2 × 0.5. […]
For studies with an A549 human non-small cell lung tumor model, nude mice were randomly allocated into three groups (n= 5): saline (control), Ppa, and SSAs when the average tumor volume reached 50 mm3. […] The tumor growth was monitored and the tumor size was measured every 3 d. […]
Untreated cells were set as a control. […] Relative abundance of transcripts was calculated with kallisto. […]

[1] = test system: A549 human non-small cell lung tumor; test: In vivo photodynamic therapy, A549 xenograft model; parameters: species or system mouse; settings: nude mice with A549 tumors, i.v. 5 mg Ppa kg-1 on day 1, 14, 21, 28, 660 nm 200 mW cm-2 8 min, n = 5
Description: and stained by the terminal deoxynucleotidyl transferase dUTP nick end labeling (TUNEL) and CD31 for histology studies.
For studies with an A549 human non-small cell lung tumor model, nude mice were randomly allocated into three groups (n= 5): saline (control), Ppa, and SSAs when the average tumor volume reached 50 mm3. Saline, Ppa, and SSAs (5 mg Ppa kg-1) were injected intravenously on day 1, 14, 21 and 28. At 3 d post injection, the tumors from groups Ppa, and SSAs were irradiated with a 660 nm laser (200 mW cm-2, 8 min). The tumor growth was monitored and the tumor size was measured every 3 d. The mice were sacrificed on day 61 after treatment.
1.3.16 RNA-seq and enriched signaling pathways analysis
4T1 cells (106/culture) were treated by SSAs and free Ppa with or without laser.
Untreated cells were set as a control. Total RNA was extracted (TRIzol Reagent, Thermo Fisher Scientific, USA) and rRNAs were removed by Ribo-zero™ rRNA Removal Kit (Epicentre, CA, USA). Relative abundance of transcripts was calculated with kallisto. The raw RNA-Seq count data were processed by DESeq R packages to obtain differentially expressed genes (DEGs).[4] […]
Enrichment analyses were performed according to the KEGG database. For gene set enrichment analysis (GSEA), all gene sets were analyzed against the curated gene sets […]

Question: Which “AUC (area under the drug concentration)” value (In vivo pharmacokinetics) does the source give for `C=Cc1c(C)c2cc3nc(c4c5[nH]c(cc6nc(cc1[nH]2)C(C)=C6CC)c(C)c5C(=O)C4)[C@@H](CCC(=O)O)[C@@H]3C` [Ppa, pyropheophorbide a] here?
Answer: 2600 ± 110 ng·h/mL

Question: And the “MRT (mean residence time)” value (In vivo pharmacokinetics)?
Answer: 3.64 ± 1.02 h

Question: What about the “t1/2 (half-life of the drug)” value (In vivo pharmacokinetics) of the same compound?
Answer: 4.29 ± 0.47 h and 4.29 h

Question: And the “Cytotoxicity with laser irradiation” value (4T1 cells; 24 h incubation, 660 nm laser, CCK-8, n = 3)?
Answer: notable cytotoxicity

Question: What about the “Concentration above which very cytotoxic without irradiation” value (4T1 cells; no light, CCK-8) of the same compound?
Answer: higher than 1 µg mL^−1

Question: And the TGI (4T1 breast tumors; one treatment (group -1), i.v. 5 mg Ppa kg-1, 660 nm 200 mW cm-2 8 min 3 d post-injection)?
Answer: 11.6%

Question: What about the TGI (4T1 breast tumors; two treatments (group -2), i.v. 5 mg Ppa kg-1 per injection, 660 nm 200 mW cm-2 8 min 3 d post-injection) of the same compound?
Answer: 17.1%

Question: What about the “Antitumor effect on tumor growth” value (4T1 breast tumors; once and twice treatments, 4T1 model) of the same compound?
Answer: no significant antitumor inhibitory effect

Question: And the Tumor growth [1]?
Answer: modest tumor growth suppression
